From ChEMBL document CHEMBL3991601, “The target landscape of clinical kinase drugs” (Science, 2017)
Active and inactive are the calls of the source. Rule as the data show it, for most assays here: actives have a measured Kd and inactives only a lower limit.

Experiments:
[1] = molecular target: T1, Isoleucine--tRNA ligase, mitochondrial (Homo sapiens, UniProt Q9NSE4)
T1 sequence (Q9NSE4 whole entry): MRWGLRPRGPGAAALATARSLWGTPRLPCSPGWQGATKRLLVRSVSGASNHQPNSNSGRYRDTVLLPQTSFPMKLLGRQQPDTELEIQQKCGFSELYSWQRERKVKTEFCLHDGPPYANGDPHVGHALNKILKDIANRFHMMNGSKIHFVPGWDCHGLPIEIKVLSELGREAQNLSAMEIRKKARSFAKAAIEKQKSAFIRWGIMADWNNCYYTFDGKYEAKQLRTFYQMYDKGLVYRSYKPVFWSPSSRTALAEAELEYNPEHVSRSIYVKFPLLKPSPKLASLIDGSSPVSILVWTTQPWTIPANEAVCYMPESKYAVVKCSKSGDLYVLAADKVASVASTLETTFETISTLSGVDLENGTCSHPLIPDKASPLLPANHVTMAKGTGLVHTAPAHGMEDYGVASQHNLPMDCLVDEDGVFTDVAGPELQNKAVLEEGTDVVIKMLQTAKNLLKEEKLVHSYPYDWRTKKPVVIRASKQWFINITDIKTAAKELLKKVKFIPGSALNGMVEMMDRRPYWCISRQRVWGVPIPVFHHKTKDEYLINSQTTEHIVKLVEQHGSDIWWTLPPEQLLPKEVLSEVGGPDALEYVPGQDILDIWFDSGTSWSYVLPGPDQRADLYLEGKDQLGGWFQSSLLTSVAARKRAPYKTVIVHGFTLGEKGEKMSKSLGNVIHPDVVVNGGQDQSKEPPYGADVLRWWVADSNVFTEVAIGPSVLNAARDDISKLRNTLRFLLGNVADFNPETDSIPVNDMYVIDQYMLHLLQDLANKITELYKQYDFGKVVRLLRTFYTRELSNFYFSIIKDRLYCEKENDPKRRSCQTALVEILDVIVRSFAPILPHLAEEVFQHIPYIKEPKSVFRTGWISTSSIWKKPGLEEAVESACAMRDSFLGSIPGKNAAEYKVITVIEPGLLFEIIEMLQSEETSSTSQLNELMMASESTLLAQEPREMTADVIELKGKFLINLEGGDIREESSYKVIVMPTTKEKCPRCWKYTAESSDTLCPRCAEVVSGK

[2] = molecular target: G protein-coupled receptor kinase 6 (Homo sapiens, UniProt P43250)
[3] = molecular target: T2, Thyroid hormone receptor-associated protein 3 (Homo sapiens, UniProt Q9Y2W1)
T2 sequence (Q9Y2W1 whole entry): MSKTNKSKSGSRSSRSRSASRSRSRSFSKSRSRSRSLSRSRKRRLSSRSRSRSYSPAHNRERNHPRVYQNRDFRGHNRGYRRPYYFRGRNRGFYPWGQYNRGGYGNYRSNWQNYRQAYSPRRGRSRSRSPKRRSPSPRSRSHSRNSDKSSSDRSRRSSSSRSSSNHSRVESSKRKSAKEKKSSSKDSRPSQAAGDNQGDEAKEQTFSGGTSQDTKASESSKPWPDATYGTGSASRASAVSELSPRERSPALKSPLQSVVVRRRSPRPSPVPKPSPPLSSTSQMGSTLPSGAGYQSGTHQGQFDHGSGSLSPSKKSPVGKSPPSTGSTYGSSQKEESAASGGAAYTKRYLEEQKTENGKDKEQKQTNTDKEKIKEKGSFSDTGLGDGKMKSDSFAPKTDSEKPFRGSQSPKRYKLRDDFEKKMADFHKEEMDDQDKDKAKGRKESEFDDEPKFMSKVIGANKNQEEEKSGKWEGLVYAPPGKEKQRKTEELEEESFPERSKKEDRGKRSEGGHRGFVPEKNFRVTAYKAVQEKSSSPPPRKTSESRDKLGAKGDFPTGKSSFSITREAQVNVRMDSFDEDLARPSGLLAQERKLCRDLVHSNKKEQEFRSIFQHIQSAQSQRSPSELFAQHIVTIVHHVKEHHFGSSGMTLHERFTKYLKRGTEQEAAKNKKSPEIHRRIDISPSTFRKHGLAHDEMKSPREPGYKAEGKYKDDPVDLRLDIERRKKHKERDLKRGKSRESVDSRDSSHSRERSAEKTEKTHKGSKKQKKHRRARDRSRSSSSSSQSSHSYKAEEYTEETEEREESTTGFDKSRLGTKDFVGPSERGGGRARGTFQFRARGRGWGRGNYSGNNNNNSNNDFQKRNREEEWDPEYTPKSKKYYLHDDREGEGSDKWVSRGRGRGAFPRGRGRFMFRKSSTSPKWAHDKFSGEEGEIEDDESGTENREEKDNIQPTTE

[4] = molecular target: T3, Tyrosine-protein kinase Tec (Homo sapiens, UniProt P42680)
T3 sequence (P42680 whole entry): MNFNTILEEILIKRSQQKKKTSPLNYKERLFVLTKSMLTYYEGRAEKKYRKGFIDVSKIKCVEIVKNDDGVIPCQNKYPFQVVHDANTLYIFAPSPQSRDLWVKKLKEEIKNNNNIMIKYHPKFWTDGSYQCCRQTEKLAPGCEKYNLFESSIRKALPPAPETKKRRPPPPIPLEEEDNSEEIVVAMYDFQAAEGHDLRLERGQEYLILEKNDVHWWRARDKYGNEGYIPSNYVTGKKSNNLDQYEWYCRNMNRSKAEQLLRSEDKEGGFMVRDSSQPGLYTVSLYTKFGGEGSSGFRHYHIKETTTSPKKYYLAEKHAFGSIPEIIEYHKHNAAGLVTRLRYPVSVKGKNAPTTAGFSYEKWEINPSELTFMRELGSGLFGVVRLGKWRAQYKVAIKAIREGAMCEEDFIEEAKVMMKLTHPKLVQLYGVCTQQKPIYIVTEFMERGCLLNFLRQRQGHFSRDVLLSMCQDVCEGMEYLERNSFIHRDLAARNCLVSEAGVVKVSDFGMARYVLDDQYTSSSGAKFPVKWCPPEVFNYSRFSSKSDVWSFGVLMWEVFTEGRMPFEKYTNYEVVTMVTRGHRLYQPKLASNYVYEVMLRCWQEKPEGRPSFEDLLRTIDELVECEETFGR

[5] = molecular target: Dual specificity mitogen-activated protein kinase kinase 1 (Homo sapiens, UniProt Q02750)
[6] = molecular target: Glycogen synthase kinase-3 beta (Homo sapiens, UniProt P49841)
[7] = molecular target: Rho-associated protein kinase 1 (Homo sapiens, UniProt Q13464)
Also: in the data inactive means no Kd found up to 30 µM.

G protein-coupled receptor kinase 6, sequence (P43250 whole entry): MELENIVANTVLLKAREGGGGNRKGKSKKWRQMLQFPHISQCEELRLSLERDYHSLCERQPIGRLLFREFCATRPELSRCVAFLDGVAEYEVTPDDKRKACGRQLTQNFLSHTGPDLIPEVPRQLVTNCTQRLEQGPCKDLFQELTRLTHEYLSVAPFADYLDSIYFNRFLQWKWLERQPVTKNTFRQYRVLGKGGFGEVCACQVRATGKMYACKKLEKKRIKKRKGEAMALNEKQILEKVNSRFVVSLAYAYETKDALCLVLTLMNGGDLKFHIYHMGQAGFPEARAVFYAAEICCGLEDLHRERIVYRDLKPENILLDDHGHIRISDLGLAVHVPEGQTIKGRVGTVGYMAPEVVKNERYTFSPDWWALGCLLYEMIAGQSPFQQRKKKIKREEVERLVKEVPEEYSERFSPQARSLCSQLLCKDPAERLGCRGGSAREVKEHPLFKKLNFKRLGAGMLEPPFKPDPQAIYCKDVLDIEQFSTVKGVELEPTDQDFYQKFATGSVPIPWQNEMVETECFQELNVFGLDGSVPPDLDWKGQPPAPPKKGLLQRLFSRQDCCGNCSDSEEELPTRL
Glycogen synthase kinase-3 beta, sequence (P49841 whole entry): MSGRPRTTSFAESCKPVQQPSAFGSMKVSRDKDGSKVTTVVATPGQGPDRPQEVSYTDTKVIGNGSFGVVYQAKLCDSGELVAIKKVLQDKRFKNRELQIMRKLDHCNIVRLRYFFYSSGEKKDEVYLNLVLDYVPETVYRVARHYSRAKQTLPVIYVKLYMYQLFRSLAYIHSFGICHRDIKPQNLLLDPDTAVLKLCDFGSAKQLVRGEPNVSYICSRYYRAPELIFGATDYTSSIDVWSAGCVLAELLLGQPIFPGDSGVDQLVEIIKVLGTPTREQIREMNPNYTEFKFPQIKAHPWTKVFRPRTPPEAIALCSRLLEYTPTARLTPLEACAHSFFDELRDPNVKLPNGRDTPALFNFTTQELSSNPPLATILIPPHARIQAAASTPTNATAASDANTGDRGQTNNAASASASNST
Rho-associated protein kinase 1, sequence (Q13464 whole entry): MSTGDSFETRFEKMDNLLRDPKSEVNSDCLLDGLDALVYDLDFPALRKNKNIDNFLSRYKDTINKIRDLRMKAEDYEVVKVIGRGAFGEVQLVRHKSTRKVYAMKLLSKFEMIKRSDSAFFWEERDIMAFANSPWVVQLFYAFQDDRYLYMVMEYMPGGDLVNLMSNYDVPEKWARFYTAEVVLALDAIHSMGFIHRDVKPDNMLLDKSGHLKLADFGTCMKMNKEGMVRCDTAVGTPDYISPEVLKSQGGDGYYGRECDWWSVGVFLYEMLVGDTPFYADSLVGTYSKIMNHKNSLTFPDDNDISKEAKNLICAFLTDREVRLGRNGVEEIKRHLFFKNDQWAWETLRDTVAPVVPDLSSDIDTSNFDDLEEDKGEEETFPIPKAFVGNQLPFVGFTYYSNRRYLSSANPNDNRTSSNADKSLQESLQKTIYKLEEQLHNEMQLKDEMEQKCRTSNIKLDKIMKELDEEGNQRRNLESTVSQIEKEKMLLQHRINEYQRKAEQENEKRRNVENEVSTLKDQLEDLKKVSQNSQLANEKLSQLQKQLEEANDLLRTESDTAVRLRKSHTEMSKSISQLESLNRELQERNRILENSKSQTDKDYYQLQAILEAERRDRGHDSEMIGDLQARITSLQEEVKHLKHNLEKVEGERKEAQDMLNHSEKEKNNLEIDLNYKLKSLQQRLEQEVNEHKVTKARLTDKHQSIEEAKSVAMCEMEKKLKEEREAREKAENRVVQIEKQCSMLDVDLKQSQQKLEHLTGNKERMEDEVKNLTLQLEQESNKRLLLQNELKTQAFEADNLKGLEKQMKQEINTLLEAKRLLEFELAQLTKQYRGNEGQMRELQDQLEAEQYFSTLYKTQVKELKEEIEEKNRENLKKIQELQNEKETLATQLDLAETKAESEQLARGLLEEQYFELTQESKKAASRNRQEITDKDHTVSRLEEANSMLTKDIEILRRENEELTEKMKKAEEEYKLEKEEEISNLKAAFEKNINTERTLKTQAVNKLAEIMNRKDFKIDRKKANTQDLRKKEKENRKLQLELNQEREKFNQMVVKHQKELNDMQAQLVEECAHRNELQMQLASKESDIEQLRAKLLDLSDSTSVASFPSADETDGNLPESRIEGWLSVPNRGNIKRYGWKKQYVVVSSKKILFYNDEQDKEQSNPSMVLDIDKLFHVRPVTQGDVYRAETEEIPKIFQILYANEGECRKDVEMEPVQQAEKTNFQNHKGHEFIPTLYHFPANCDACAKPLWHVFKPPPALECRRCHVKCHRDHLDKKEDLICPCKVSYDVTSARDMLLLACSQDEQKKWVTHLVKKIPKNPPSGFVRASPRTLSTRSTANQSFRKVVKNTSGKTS
Dual specificity mitogen-activated protein kinase kinase 1, sequence (Q02750 whole entry): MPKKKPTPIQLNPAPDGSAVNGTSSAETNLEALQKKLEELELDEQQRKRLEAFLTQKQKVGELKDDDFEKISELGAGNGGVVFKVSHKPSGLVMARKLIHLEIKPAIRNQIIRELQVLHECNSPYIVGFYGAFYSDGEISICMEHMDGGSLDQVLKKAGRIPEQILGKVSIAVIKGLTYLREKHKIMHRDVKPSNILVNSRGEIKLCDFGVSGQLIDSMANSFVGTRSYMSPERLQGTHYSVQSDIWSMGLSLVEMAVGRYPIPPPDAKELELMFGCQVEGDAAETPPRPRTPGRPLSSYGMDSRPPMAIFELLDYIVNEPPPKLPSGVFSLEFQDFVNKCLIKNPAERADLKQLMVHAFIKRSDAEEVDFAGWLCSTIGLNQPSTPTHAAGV

Row | Structure (SMILES) | Kd [1] | Kd [2] | Kd [3] | Kd [4] | Kd [5] | Kd [6] | Kd [7]
1 | C=CC(=O)Nc1cc(Nc2nccc(-c3cn(C)c4ccccc34)n2)c(OC)cc1N(C)CCN(C)C [OSIMERTINIB] | > 30 µM (inactive) | > 30 µM (inactive) | > 30 µM (inactive) | 0.321 µM (active) | > 30 µM (inactive) | > 30 µM (inactive) | > 30 µM (inactive)
2 | COc1ccc2c(OCc3nnc4ccc(-c5ccccc5)nn34)ccnc2c1 [AMG-208] | > 30 µM (inactive) | > 30 µM (inactive) | > 30 µM (inactive) | > 30 µM (inactive) | > 30 µM (inactive) | > 30 µM (inactive) | > 30 µM (inactive)
3 | COc1cccc2cc(-c3nc([C@H]4CC[C@H](C(=O)O)CC4)n4ncnc(N)c34)[nH]c12 [OSI-027] | > 30 µM (inactive) | > 30 µM (inactive) | > 30 µM (inactive) | > 30 µM (inactive) | > 30 µM (inactive) | > 30 µM (inactive) | > 30 µM (inactive)
